“Also recorded” adds a separate entry of the source.
What was measured:
Type in all cases: in vivo
C57B/6 male mice [1] = experiment: Amphetamine-induced stereotypy (open field locomotion); conditions: for AMBULATIONS / FINE MOVEMENTS: 30 μg/kg PO, amphetamine 8 mg/kg; for FINE MOVEMENTS: scored 60 min post-amphetamine
Protocol: C57B/6 male mice were placed in an open field apparatus and allowed to habituate for 15-30 minutes. The compound of the invention (at 30 μg/kg) was administered PO at 0, +15, or +30 minutes relative to amphetamine (8 mg/kg) administration, and locomotor behavior was scored for an additional 60 minutes post-amphetamine. Amphetamine was administered IP. Locomotion was separated into “fine movements” (indicative of stereotypy) and “ambulations” (indicative of hyperactivity). Amphetamine induced stereotypy. […] Locomotion was separated into “fine movements” (indicative of stereotypy) and “ambulations” (indicative of hyperactivity). Prepulse inhibition. Sprague Dawley male rats (˜200 g-300 g) were used (n=8/group). […] Each rat was individually placed in the startle chamber 10 minutes post-phencyclidine or post-amphetamine or post-vehicle. Testing was carried out using the SR-Lab Startle Response system by San Diego Instruments. Each rat was allowed to acclimate for a 5 minute period with a 65-dB background noise continuously present throughout the session. […] A sensor in the chamber recorded the startle responses following all stimuli presented.

Male Sprague-Dawley rats = experiment: Pre-pulse inhibition of the startle response (PPI) disrupted by psychostimulants
Protocol: Male Sprague-Dawley rats were treated with Drug 1 (IP) followed 20 minutes later by Drug 2 (IP or SC as indicated in the methods). Ten minutes following administration of Drug 2 (except in the case of apomorphine where animals were immediately tested post-apomorphine), rats were placed in the startle chamber and allowed 5 minutes to acclimate with 65-dB background white noise. The acclimation period was followed by a ˜15 minute test session during which time rats were presented with 40 ms 120 dB startle pulses alone or preceded 100 ms by a pre-pulse 3, 6, or 12 dB above background. These four types of active stimuli were presented in pseudorandom order along with no-stimulation trials to assess baseline activity throughout testing. An average of 20 s separated each trial type. The maximum startle magnitude was measured for every trial type. PPI for each animal was calculated as the percentage startle magnitude to the pre-pulse+pulse or no-stimulation trials relative to the pulse-alone startle magnitude. Amphetamine induced stereotypy. […] Locomotion was separated into “fine movements” (indicative of stereotypy) and “ambulations” (indicative of hyperactivity). Prepulse inhibition. […] Each rat was individually placed in the startle chamber 10 minutes post-phencyclidine or post-amphetamine or post-vehicle. Testing was carried out using the SR-Lab Startle Response system by San Diego Instruments. Each rat was allowed to acclimate for a 5 minute period with a 65-dB background noise continuously present throughout the session. […] A sensor in the chamber recorded the startle responses following all stimuli presented.

C57B/6 male mice [2] = experiment: Amphetamine-induced stereotypy (open field locomotion); conditions: 30 μg/kg PO, time post-amphetamine −15 min, amphetamine 8 mg/kg

Cc1cccc(C(C)c2c[nH]c(=S)[nH]2)c1C (stereo not shown) [AGN-203818, 4-(1-(2,3-dimethylphenyl)ethyl)-1H-imidazole-2(3H)-thione]
AMBULATIONS (C57B/6 male mice [1]; time post-amphetamine 0 min): 7337 ± 890.0
FINE MOVEMENTS (C57B/6 male mice [1]; time post-amphetamine 0 min): 762.2 ± 89.4^⋄
AMBULATIONS (C57B/6 male mice [1]; time post-amphetamine 15 min): 5747.3 ± 874.4
FINE MOVEMENTS (C57B/6 male mice [1]; time post-amphetamine 15 min): 1066.5 ± 37.8^⋄
AMBULATIONS (C57B/6 male mice [1]; time post-amphetamine 30 min): 7201.2 ± 1669.4
FINE MOVEMENTS (C57B/6 male mice [1]; time post-amphetamine 30 min): 1297.8 ± 85.3^⋄
oral activity (in words) (C57B/6 male mice [1]; administered PO): orally active
effect on amphetamine-induced stereotypy (in words) (C57B/6 male mice [1]; high-dose psychostimulant administration, listed as compound of the invention): effectively inhibit stereotypy; also recorded: selectively decreased amphetamine-induced stereotypy
% PPI PP3 (Male Sprague-Dawley rats; Compound 0.01 mg/kg as Drug 1, Drug 2 PCP (2 mg/kg, s.c.), pre-pulse 3 dB): 20.3 ± 10.6%
% PPI PP6 (Male Sprague-Dawley rats; Compound 0.01 mg/kg as Drug 1, Drug 2 PCP (2 mg/kg, s.c.), pre-pulse 6 dB): 21.6 ± 10.7%
% PPI PP12 (Male Sprague-Dawley rats; Compound 0.01 mg/kg as Drug 1, Drug 2 PCP (2 mg/kg, s.c.), pre-pulse 12 dB): 51.8 ± 5.6%
% PPI PP3 (Male Sprague-Dawley rats; Compound 0.03 mg/kg as Drug 1, Drug 2 PCP (2 mg/kg, s.c.), pre-pulse 3 dB): 30.9 ± 7.4%
% PPI PP6 (Male Sprague-Dawley rats; Compound 0.03 mg/kg as Drug 1, Drug 2 PCP (2 mg/kg, s.c.), pre-pulse 6 dB): 46.2 ± 4.2%^⋄
% PPI PP12 (Male Sprague-Dawley rats; Compound 0.03 mg/kg as Drug 1, Drug 2 PCP (2 mg/kg, s.c.), pre-pulse 12 dB): 53.6 ± 4.2%
% PPI PP3 (Male Sprague-Dawley rats; Compound 0.1 mg/kg as Drug 1, Drug 2 PCP (2 mg/kg, s.c.), pre-pulse 3 dB): 35.8 ± 7.0%
% PPI PP6 (Male Sprague-Dawley rats; Compound 0.1 mg/kg as Drug 1, Drug 2 PCP (2 mg/kg, s.c.), pre-pulse 6 dB): 39.6 ± 10.7%
% PPI PP12 (Male Sprague-Dawley rats; Compound 0.1 mg/kg as Drug 1, Drug 2 PCP (2 mg/kg, s.c.), pre-pulse 12 dB): 56.2 ± 5.6%^⋄
% PPI PP3 (Male Sprague-Dawley rats; Compound 1 mg/kg as Drug 1, Drug 2 Amphetamine (4 mg/kg, s.c.), pre-pulse 3 dB): 49.6 ± 5.8%^⋄
% PPI PP6 (Male Sprague-Dawley rats; Compound 1 mg/kg as Drug 1, Drug 2 Amphetamine (4 mg/kg, s.c.), pre-pulse 6 dB): 52.9 ± 4.3%^⋄
% PPI PP12 (Male Sprague-Dawley rats; Compound 1 mg/kg as Drug 1, Drug 2 Amphetamine (4 mg/kg, s.c.), pre-pulse 12 dB): 65.7 ± 4.7%^⋄
% PPI PP3 (Male Sprague-Dawley rats; Compound 1 mg/kg as Drug 1, Drug 2 PCP (2 mg/kg, s.c.), pre-pulse 3 dB): 48.8 ± 8.2%^⋄
% PPI PP6 (Male Sprague-Dawley rats; Compound 1 mg/kg as Drug 1, Drug 2 PCP (2 mg/kg, s.c.), pre-pulse 6 dB): 45.0 ± 12.7%
% PPI PP3 (Male Sprague-Dawley rats; Compound as Drug 1 (dose not given), Drug 2 Vehicle, pre-pulse 3 dB): 60.4 ± 4.8%^⋄
% PPI PP6 (Male Sprague-Dawley rats; Compound as Drug 1 (dose not given), Drug 2 Vehicle, pre-pulse 6 dB): 59.8 ± 2.2%^⋄
% PPI PP12 (Male Sprague-Dawley rats; Compound as Drug 1 (dose not given), Drug 2 Vehicle, pre-pulse 12 dB): 75.5 ± 2.9%^⋄*
effect on PPI deficits induced by amphetamine or phencyclidine (in words) (Male Sprague-Dawley rats; deficits induced by amphetamine or phencyclidine): significantly rescue deficits in sensorimotor integration
AMBULATIONS (C57B/6 male mice [2]; ambulations indicative of hyperactivity): 4756.3 ± 1208.8
FINE MOVEMENTS (C57B/6 male mice [2]; scored 60 min post-amphetamine, fine movements indicative of stereotypy): 904.5 ± 107.0^⋄

Clc1cccc(Cl)c1N=C1NCCN1 [Clonidine, reference compound]
% PPI PP3 (Male Sprague-Dawley rats; Clonidine 30 ug/kg as Drug 1, Drug 2 Amphetamine (4 mg/kg, s.c.), pre-pulse 3 dB): 31.0 ± 6.9%
% PPI PP6 (Male Sprague-Dawley rats; Clonidine 30 ug/kg as Drug 1, Drug 2 Amphetamine (4 mg/kg, s.c.), pre-pulse 6 dB): 40.7 ± 6.0%
% PPI PP12 (Male Sprague-Dawley rats; Clonidine 30 ug/kg as Drug 1, Drug 2 Amphetamine (4 mg/kg, s.c.), pre-pulse 12 dB): 53.5 ± 5.2%
% PPI PP3 (Male Sprague-Dawley rats; Clonidine 30 ug/kg as Drug 1, Drug 2 PCP (2 mg/kg, s.c.), pre-pulse 3 dB): 34.5 ± 8.2%
% PPI PP6 (Male Sprague-Dawley rats; Clonidine 30 ug/kg as Drug 1, Drug 2 PCP (2 mg/kg, s.c.), pre-pulse 6 dB): 55.1 ± 9.8%
% PPI PP12 (Male Sprague-Dawley rats; Clonidine 30 ug/kg as Drug 1, Drug 2 PCP (2 mg/kg, s.c.), pre-pulse 12 dB): 63.7 ± 7.4%
% PPI PP3 (Male Sprague-Dawley rats; Clonidine 30 ug/kg as Drug 1, Drug 2 Vehicle, pre-pulse 3 dB above background): 35.2 ± 15.7%
% PPI PP6 (Male Sprague-Dawley rats; Clonidine 30 ug/kg as Drug 1, Drug 2 Vehicle, pre-pulse 6 dB above background): 60.8 ± 3.0%^⋄
% PPI PP12 (Male Sprague-Dawley rats; Clonidine 30 ug/kg as Drug 1, Drug 2 Vehicle, pre-pulse 12 dB above background): 54.7 ± 8.0%
